Values quoted from earlier work in patent US20090005340A1, “Bioactive Agents Produced By Submerged Cultivation of a Basidiomycete Cell” (MediMush A/S, priority 2005, published 2009).

System: cytochrome P450s (CYPs)

- expression of cytochrome P450s (CYPs): suppress the expression
Substance: Lentinan
